The text below walks through data of a melting point compilation (Tetko et al.; mined from patent text by program, amines drawn as free bases though some values may be those of a salt).

Molecules are shown by their SMILES.

For orientation: melting point means the temperature of the solid-liquid transition. Take `CC1CN(C)c2c(Cl)ccc3c(=O)c(C(=O)O)cn1c23` (centres undefined): the melting point was in the range of 243 to 245 °C.

For `COc1cccc(C#CC#Cc2cc(C(F)(F)F)ccc2C(F)(F)F)c1`, the melting point was 37 °C.

Consider `CCOC(=O)CCCOc1c(Br)cc(Br)c(C(N)=O)c1Br`, for which the melting point was 138 to 140 °C. Take `CCCCCCCCc1ccc(CCC2(NC(=O)OC(C)(C)C)COC(C)(C)OC2)cc1`: the melting point lay within 120 to 124 °C. In the case of `COc1ccc(O)c(C2(O)C(=O)Nc3cccc(Br)c32)n1` (centres undefined), the melting point was in the range of 172 to 175 °C. The molecule `COC(=O)C(CO)N(Cc1ccc(Cl)cc1N)S(=O)(=O)c1ccc(OC)cc1` (centres undefined) yielded a melting point of 99 to 112 °C. Molecule `O=C1N(Cc2ccc(Cl)s2)c2ccccc2C1(O)c1cc(OCc2ccccc2)ccc1O` (centres undefined) had a melting point of 174 to 175 °C. For `CC(C)(C)OC(=O)NCc1cc(C(=O)O)ccn1`, the melting point amounted to 207 °C.

For `CCOC(=O)c1ccc(-c2ccc(-c3ccc(C(F)(F)F)cc3)s2)cc1`, the melting point was 203 to 204 °C. `CC1CC(=O)N(CCCCN2CCN(c3cncc(Cl)n3)CC2)S(=O)(=O)N1` (centres undefined) gave a melting point of 107 to 109 °C. Consider `Cc1c(-c2ccccc2)oc2c(CS(=O)(=O)CCCl)cccc2c1=O`, for which the melting point was in the range of 158 to 161 °C. The molecule `CC(C)(O)Cn1c(CO)nc2c(N)nc3ccccc3c21` returned a melting point of 264 to 271 °C.

`CC(O)c1cc2c(Cl)cc(F)c(-n3c(=O)cc(C(F)(F)F)n(C)c3=O)c2o1` (centres undefined) gave a melting point of 154 to 157 °C. `CCOC(=O)c1ccc(CCN(C)CCCC(C#N)(c2ccc(OC)c(OC)c2)C(C)C)cc1` (centres undefined) registered a melting point of 111 to 112 °C. `Cc1nc(-n2ccc(OCCC3CC3)cc2=O)sc1C(=O)NCc1cccnc1` gave a melting point of 170 to 172 °C.

On to `CCn1nc2c(N)nc3ccccc3c2c1CCCCNS(C)(=O)=O`, for which the melting point lay within 192 to 194 °C. Take `CN(C)C=C(C(=O)c1ccc(Cl)cc1)c1ccccc1[N+](=O)[O-]`: the melting point was 142 to 148 °C.

`Cc1cc(C)nc(COc2ccc3c(c2)c(SC(C)(C)C)c(CC(C)(C)C(=O)O)n3Cc2ccc(Cl)cc2)n1` showed a melting point of 213 to 215 °C.

With `COc1ccc2oc(-c3ccccc3)c(CC#N)c2c1`, the melting point was in the range of 106 to 107 °C. For `COc1ccc(C(=O)NCCCCCCCCCCCCNC(=O)c2ccc(OC)cc2)cc1`, the melting point lay in the range of 169 to 170 °C. On to `CCOC(=O)CC(=O)c1cc(F)c(OC)nc1Nc1ccc(F)cc1F`, for which the melting point was in the range of 148 to 149 °C. The molecule `Cc1nc2c3c(ccc2[nH]1)[C@@H](O)[C@H](O)[C@@H](c1ccccc1)O3` came in with a melting point of 163 °C. With `O=C(NC(=O)c1ccccc1Cl)Nc1cnc(C(F)(F)F)cn1`, the melting point is 219 to 220 °C. In the case of `CCCn1nc(C(C)C)c(C(=O)OCOC(C)=O)c1Cc1ccc(-c2ccccc2-c2nnn(C(c3ccccc3)(c3ccccc3)c3ccccc3)n2)cc1`, the melting point fell in the range of 124 to 128 °C. Then `COC(=O)c1ccc(C#CC(C)(O)c2ccc3c(c2)C(C)(C)CCC3(C)C)cc1O` (centres undefined), with 110 to 115 °C; and `COc1ccccc1NCN1C(=O)CN(C)C1=O`, with 93 to 96.5 °C; and `O=[N+]([O-])c1ccc(F)cc1CO`, with 82 to 86 °C. Under `CN(C)C(=S)N1C=CC=NC1N` (centres undefined) stands 134 to 136 °C; under `Brc1cccc(C=C2c3ccccc3CCc3ccccc32)c1`, 105 °C. The molecule `COc1cc(Nc2nc3c(s2)CCCC3c2ccccc2)ccc1C(N)=O` (centres undefined) registered a melting point of 243 to 246 °C. In turn, `CCc1cccc(C)c1CNc1cc(C(=O)NCCO)cc2c1nc(C)n2C` came in with a melting point of 200 to 201 °C. With `CC1OC1C1CC(O)C2(C)CCC3C(CCC4CC(OC5CCCCO5)CC(C)C43C)C12` (centres undefined), the melting point lay in the range of 172 to 174 °C.

`Cc1cc(CCc2cc(O)c(=O)[nH]n2)ccc1C(F)(F)F` came in with a melting point of 174 to 175 °C. With `CCOC(=O)/C=C/c1ccc(OCCOC)cc1OS(=O)(=O)C(F)(F)F`, the melting point was 37.1 to 37.3 °C.
